Like-named read-outs stand apart in the source and are kept apart here. Non-standard residues stand in square brackets, D forms with d. Residues, ends and D or L forms follow the SMILES beside them. No end group written: not given here. *: point of attachment. Bpa = N[C@@H](Cc1ccc(C(=O)c2ccccc2)cc1)C(=O)O; Myristoyl = CCCCCCCCCCCCCC(=O)*
Experiments:
[1] = tested on: D. melanogaster heart; format: in vivo, Drosophila melanogaster; settings: for heart rate, % of the basal contraction rate: within 1 minute; for EC50: in vivo, maximal effect 1 minute after microinjection, read-out: best-fit EC50, decrease of heart rate; for effect on fly heart rate / contractility (in words): DMS analogs
Procedure: D. melanogaster Oregon R wild-type strain flies were maintained on cornmeal molasses media at 24° C. under a 12 hour light/dark cycle. The animals selected for analysis were larvae, prepupae, or adults; both females and males were analyzed and no difference in response was observed. An animal was positioned onto double-stick tape adhered to a microscope stage and heart rate was monitored for 2 minutes before and 10 minutes after saline (control) or peptide was delivered as previously described (Nichols, R. Et al. (1999), Zornik, E. et al. (1999)). A drawn-out micropipette was used to deliver saline or peptide (40 ηl) into the hemolymph (blood) at a site anterior to the brain to avoid tissue damage to the central nervous system and dorsal vessel (aorta and heart). Each animal received only one microinjection of saline or peptide. In some cases, recordings were extended up to 1 hour to establish the return to baseline. Data were averaged from several animals (n≧10) and reported relative to the basal heart rate.
The influence of DMS (Dromyosuppressin peptide; […]amide—SEQ ID NO: 1) on in vivo heart rate in D. melanogaster was compared to physiological saline to evaluate dose-dependent effects of myosuppressin in cardiac function in a model amenable to molecular genetics. […] The dose-dependent effects of dromyosuppressin reported were evaluated in pupae because the animals are immobile and, thus, this developmental stage is the easiest to observe and record heart contractions. The effects of DMS were measured over a range of ten-fold concentrations from 10^−6 M to 10^−11 M and compared to the influence of physiological saline (mean±SEM; 91±3% basal contraction rate at 1 minute; n=18). […] Significant reductions in heart rate were detected in response to DMS concentrations of 10^−9 M and higher, and the peak responses were observed within 1 minute of microinjection of the peptide. The DMS-induced effects typically were observed over 2-3 minutes, and were reversible, returning to approximately basal contraction rate levels in about 5 minutes in response to 10^−8 M and 10^−9 M. At the highest concentrations tested, 10^−6 M and 10^−7 M, DMS decreased heart rate to 25±11% (n=14) and 25±7% (n=16), respectively, within 1 minute. The DMS-induced effects were sustained for 3-5 minutes before they returned to approximately basal contraction rate levels within 30 minutes.

[2] = tested on: Protophormia terraenovae; assay: Cardiac arrest in intact blowfly (electrocardiograms); format: in vivo
Procedure: In order to determine the effect of DMS on cardiac arrest in a larger invertebrate various concentrations of DMS were applied to intact Protophormia terraenovae, a blowfly, and electrocardiograms were recorded continuously [Angioy et al. 2007]. […] Signal resumed in animals; the recovery time shortened at lower DMS concentrations.

[3] = tested on: isolated adult rat cardiac myocytes; format: cell-based; settings: for ability to bind and affect myocyte contractile function: 10^−8M, individually administered; for % Change baseline SL / % Change dep v (shortening rate) / % Change peak h (shortening amplitude) / % Change ret v (re-lengthening rate): 10^−8 M; for character relative to hRFRP-1 on myocyte contractile function (agonist, antagonist, reverse agonist; in words): peptides at 10^−8M or 10^−7M, peak shortening, departure and return velocity
Description: Adult rat and rabbit ventricular cardiac myocytes were isolated as previously described (Westfall, M. V. Et al. (1997), Westfall, M. V. and Borton, A. R. (2003)). Hearts from Sprague-Dawley rats and New Zealand white rabbits were perfused and enzymatically digested to isolate myocytes; the protocol was approved by The University of Michigan University Committee on Use and Care of Animals (UCUCA) in accordance with university and federal regulatory guidelines. Aliquots of isolated ventricular myocytes were plated on laminin-coated glass coverslips in serum-containing Dulbecco's Modified Eagle Media (Invitrogen, CA, US) supplemented with 5% fetal bovine serum, and 50 U/ml penicillin and 50 μg/ml streptomycin (pen/strep; Sigma-Aldrich, MO, US). Two hours later, media was replaced with serum-free M199 (Invitrogen) supplemented with 1.8 mM Ca^2+, 10 mM HEPES, 10 mM glutathione, and pen/strep. Rat myocytes were transferred to a stimulation chamber and electrically paced the day after isolation (Zornik, E. Et al. (1999), Westfall, M. V. Et al. (1997)). Media was changed daily for all myocyte preparations.
Sarcomere shortening was detected using a video-based detection system (IonOptix, MA, USA) as described earlier (Westfall, M. V. and Borton, A. R. (2003)). Rat myocytes were paced at 0.2 Hz and rabbit myocytes were paced at 0.5 Hz or 1.0 Hz for these studies. Recordings were made prior to application of each peptide concentration, the protein kinase C (PKC) inhibitor bisindolylmaleimide-1, (bis-1; CalBiochem/EMD, NJ, US), or media only (control, C) and at 1, 3, 5, 10 and 15 minutes after application of peptide, bis-1, or media. Signal averaged data were analyzed to determine resting sarcomere length, shortening amplitude (peak shortening), shortening rate (departure velocity), and re-lengthening rate (return velocity), as previously described (Westfall, M. V. Et al. (1997), Westfall, M. V. and Borton, A. R. (2003)), in 7-20 myocytes from 3-4 rats for each peptide concentration, bis-1, and media.

CC(C)C[C@H](NC(=O)[C@H](Cc1ccccc1)NC(=O)[C@@H](NC(=O)[C@H](Cc1c[nH]cn1)NC(=O)[C@H](CC(=O)O)NC(=O)[C@@H](NC(=O)[C@H](CC(=O)O)NC(=O)[C@@H](N)[C@@H](C)O)C(C)C)C(C)C)C(=O)N[C@@H](CCCNC(=N)N)C(=O)N[C@@H](Cc1ccccc1)C(N)=O [DMS] (H-TDVDHVFLRF-NH2; N-terminus assumed)
time effects were sustained ([1]; 10^−6 M and 10^−7 M): 3 to 5 min
time to return to approximately basal contraction rate ([1]; 10^−6 M and 10^−7 M): ≤ 30 min
heart rate, % of the basal contraction rate ([1]; 10^−6 M, pupae): 25±11%
heart rate, % of the basal contraction rate ([1]; 10^−7 M, pupae): 25±7%
time to return to approximately basal contraction rate ([1]; 10^−8 M and 10^−9 M): about 5 minutes
heart rate, % of the basal contraction rate ([1]; 10^−10 M, pupae): 77±4%
time to maximal effect on heart rate ([1]; after microinjection, pupae): ≤ 1 min
EC50 [1]: 3 nM
responses on heart contractions in larvae and in adults ([1]; similar range of concentrations, larvae and adults): less robust but significant responses
time over which effects were observed ([1]; typical, 10^−8 M and 10^−9 M): 2 to 3 min
animals with cardiac arrest ([2]; 10 μM, 1 μM, and 0.1 ηM, n=10 at each concentration): 100%
animals with cardiac arrest ([2]; lower concentrations): ~50%

CC(C)C[C@H](NC(=O)[C@H](Cc1ccccc1)NC(=O)[C@@H](NC(=O)[C@H](Cc1c[nH]cn1)NC(=O)[C@H](CC(=O)O)NC(=O)[C@@H](NC(=O)[C@H](Cc1ccc(C(=O)c2ccccc2)cc1)NC(=O)[C@@H](NC(=O)[C@@H](N)Cc1ccc(O)cc1)[C@@H](C)O)C(C)C)C(C)C)C(=O)N[C@@H](CCCNC(=N)N)C(=O)N[C@@H](Cc1ccccc1)C(N)=O [Y-[Bpa2]DMS] (H-YT[Bpa]VDHVFLRF-NH2; N-terminus assumed)
EC50 [1]: 0.13 nM

CN(C)CCCn1cc(C2=C(c3c[nH]c4ccccc34)C(=O)NC2=O)c2ccccc21 [bis-1, bisindolylmaleimide-1, reference compound]
effect of inhibitor on the influence of 10^−8 M hRFRP-1 on shortening amplitude, shortening and re-lengthening rates ([3]; 500 ηM inhibitor, 15 minutes): largely blocked

AFLRFamide (AFLRF-NH2)
effect on fly heart rate / contractility (in words) [1]: capable of not only binding, but exerting an effect on cardiac contractility

FANLPLRFamide (FANLPLRF-NH2)
ability to bind and affect myocyte contractile function [3]: in a manner similar to the parent peptide hRFRP-1

FLRFamide (FLRF-NH2)
effect on fly heart rate / contractility (in words) [1]: DMS antagonist

KGGFSFRFamide (KGGFSFRF-NH2; listed as Rattus norvegicus) [26RFa(19-26), reference compound]
% Change baseline SL ([3]; 15 minutes): −0.4 ± 0.2%
% Change dep v (shortening rate) ([3]; 15 minutes): −5.3 ± 5.6%
% Change peak h (shortening amplitude) ([3]; 15 minutes): −7.7 ± 4.8%
% Change ret v (re-lengthening rate) ([3]; 15 minutes): −8.1 ± 5.0%

LAEELSSYSRRKGGFSFRFamide (LAEELSSYSRRKGGFSFRF-NH2) [26RFa(8-26), reference compound]
% Change baseline SL ([3]; 15 minutes): −0.04 ± 0.1%
% Change dep v (shortening rate) ([3]; 15 minutes): −6.0 ± 4.4%
% Change peak h (shortening amplitude) ([3]; 15 minutes): −4.3 ± 5.7%
% Change ret v (re-lengthening rate) ([3]; 15 minutes): −7.3 ± 6.3%

LPLRFamide (LPLRF-NH2)
ability to bind and affect myocyte contractile function [3]: in a manner similar to the parent peptide hRFRP-1

MP(Bpa)SFANLPLRFamide (MP[Bpa]SFANLPLRF-NH2; N-terminus assumed; SMILES CSCC[C@H](N)C(=O)N1CCC[C@H]1C(=O)N[C@@H](Cc1ccc(C(=O)c2ccccc2)cc1)C(=O)N[C@@H](CO)C(=O)N[C@@H](Cc1ccccc1)C(=O)N[C@@H](C)C(=O)N[C@@H](CC(N)=O)C(=O)N[C@@H](CC(C)C)C(=O)N1CCC[C@H]1C(=O)N[C@@H](CC(C)C)C(=O)N[C@@H](CCCNC(=N)N)C(=O)N[C@@H](Cc1ccccc1)C(N)=O) [[Bpa3]hRFRP-1]
character relative to hRFRP-1 on myocyte contractile function (agonist, antagonist, reverse agonist; in words) [3]: increases cardiac function

PHSFANLPLRFamide (PHSFANLPLRF-NH2)
character relative to hRFRP-1 on myocyte contractile function (agonist, antagonist, reverse agonist; in words) [3]: super-agonist

PKI-(Myr-14-22)-amide (Myristoyl-SGRTGRRNA-NH2; SMILES CCCCCCCCCCCCCC(=O)N[C@@H](CO)C(=O)NCC(=O)N[C@@H](CCCNC(=N)N)C(=O)N[C@H](C(=O)NCC(=O)N[C@@H](CCCNC(=N)N)C(=O)N[C@@H](CCCNC(=N)N)C(=O)N[C@@H](CC(N)=O)C(=O)N[C@@H](C)C(N)=O)[C@@H](C)O; UniProt P61925 14-22, looked up, fragment) [reference compound]
effect of inhibitor on the activity of hRFRP-1 ([3]; isolated ventricular cardiac myocytes): modifies the activity of hRFRP-1

PQRFamide (PQRF-NH2)
ability to bind and affect myocyte contractile function [3]: in a manner similar to the parent peptide hRFRP-1

TDVDAVFLRFamide (TDVDAVFLRF-NH2) [[A5]DMS]
effect on fly heart rate / contractility (in words) [1]: increase heart rate

TDVDHAFLRFamide (TDVDHAFLRF-NH2) [[A6]DMS]
effect on fly heart rate / contractility (in words) [1]: increase heart rate

VDHVFLRFamide (VDHVFLRF-NH2)
effect on fly heart rate / contractility (in words) [1]: activity similar to the parent DMS peptide

VFLRFamide (VFLRF-NH2)
effect on fly heart rate / contractility (in words) [1]: capable of not only binding, but exerting an effect on cardiac contractility

VPHSAANLPLRFamide (VPHSAANLPLRF-NH2; listed as Rattus norvegicus) [rRFRP-1]
% Change baseline SL ([3]; 15 minutes): −0.3 ± 0.1%
% Change dep v (shortening rate) ([3]; 15 minutes): −22.1±6.0%
% Change peak h (shortening amplitude) ([3]; 15 minutes): −17.7±4.3%
% Change ret v (re-lengthening rate) ([3]; 15 minutes): −25.5±3.9%

YMPIISFANLPLRF-NH2 [Y-hRFRP-1]
character relative to hRFRP-1 on myocyte contractile function (agonist, antagonist, reverse agonist; in words) [3]: hRFRP-1 agonist

[A9]hRFRP-1: parent hRFRP-1 peptide where the 9th amino acid is replaced by an alanyl residue (MPHSFANLALRF-NH2; listed as Homo sapiens)
peak shortening (peak h) compared with unsubstituted hRFRP-1 ([3]; 10^−8M alanine analogs): significantly different
relaxation (ret v) compared with unsubstituted hRFRP-1 ([3]; 10^−8M alanine analogs): significantly different

Source: US9527889B2, “RFamide-related peptides and methods thereof” (THE REGENTS OF THE UNIVERSITY OF MICHIGAN, priority 2010, dated 2016)
